Reference: patent US12441726B2, “Compounds and uses thereof” (Foghorn Therapeutics Inc., priority 2020, dated 2025)

Tests used:
[1] = biological target: BRM (Homo sapiens, UniProt P51531); assay: ATPase catalytic activity assay (ADP-Glo), BRM; conditions: 30 nM BRM, 400 μM ATP; for IC50: BRM ATPase: IC50 (uM)
[2] = biological target: BRG-1 (Homo sapiens, UniProt P51532); assay: ATPase catalytic activity assay (ADP-Glo), BRG-1; conditions: for Emax: 1 h, read-out: BRG1 Max % Inhibition, ADP-Glo, 30 nM BRG-1, 400 μM ATP
Chain of BRG-1 (P51532 whole entry): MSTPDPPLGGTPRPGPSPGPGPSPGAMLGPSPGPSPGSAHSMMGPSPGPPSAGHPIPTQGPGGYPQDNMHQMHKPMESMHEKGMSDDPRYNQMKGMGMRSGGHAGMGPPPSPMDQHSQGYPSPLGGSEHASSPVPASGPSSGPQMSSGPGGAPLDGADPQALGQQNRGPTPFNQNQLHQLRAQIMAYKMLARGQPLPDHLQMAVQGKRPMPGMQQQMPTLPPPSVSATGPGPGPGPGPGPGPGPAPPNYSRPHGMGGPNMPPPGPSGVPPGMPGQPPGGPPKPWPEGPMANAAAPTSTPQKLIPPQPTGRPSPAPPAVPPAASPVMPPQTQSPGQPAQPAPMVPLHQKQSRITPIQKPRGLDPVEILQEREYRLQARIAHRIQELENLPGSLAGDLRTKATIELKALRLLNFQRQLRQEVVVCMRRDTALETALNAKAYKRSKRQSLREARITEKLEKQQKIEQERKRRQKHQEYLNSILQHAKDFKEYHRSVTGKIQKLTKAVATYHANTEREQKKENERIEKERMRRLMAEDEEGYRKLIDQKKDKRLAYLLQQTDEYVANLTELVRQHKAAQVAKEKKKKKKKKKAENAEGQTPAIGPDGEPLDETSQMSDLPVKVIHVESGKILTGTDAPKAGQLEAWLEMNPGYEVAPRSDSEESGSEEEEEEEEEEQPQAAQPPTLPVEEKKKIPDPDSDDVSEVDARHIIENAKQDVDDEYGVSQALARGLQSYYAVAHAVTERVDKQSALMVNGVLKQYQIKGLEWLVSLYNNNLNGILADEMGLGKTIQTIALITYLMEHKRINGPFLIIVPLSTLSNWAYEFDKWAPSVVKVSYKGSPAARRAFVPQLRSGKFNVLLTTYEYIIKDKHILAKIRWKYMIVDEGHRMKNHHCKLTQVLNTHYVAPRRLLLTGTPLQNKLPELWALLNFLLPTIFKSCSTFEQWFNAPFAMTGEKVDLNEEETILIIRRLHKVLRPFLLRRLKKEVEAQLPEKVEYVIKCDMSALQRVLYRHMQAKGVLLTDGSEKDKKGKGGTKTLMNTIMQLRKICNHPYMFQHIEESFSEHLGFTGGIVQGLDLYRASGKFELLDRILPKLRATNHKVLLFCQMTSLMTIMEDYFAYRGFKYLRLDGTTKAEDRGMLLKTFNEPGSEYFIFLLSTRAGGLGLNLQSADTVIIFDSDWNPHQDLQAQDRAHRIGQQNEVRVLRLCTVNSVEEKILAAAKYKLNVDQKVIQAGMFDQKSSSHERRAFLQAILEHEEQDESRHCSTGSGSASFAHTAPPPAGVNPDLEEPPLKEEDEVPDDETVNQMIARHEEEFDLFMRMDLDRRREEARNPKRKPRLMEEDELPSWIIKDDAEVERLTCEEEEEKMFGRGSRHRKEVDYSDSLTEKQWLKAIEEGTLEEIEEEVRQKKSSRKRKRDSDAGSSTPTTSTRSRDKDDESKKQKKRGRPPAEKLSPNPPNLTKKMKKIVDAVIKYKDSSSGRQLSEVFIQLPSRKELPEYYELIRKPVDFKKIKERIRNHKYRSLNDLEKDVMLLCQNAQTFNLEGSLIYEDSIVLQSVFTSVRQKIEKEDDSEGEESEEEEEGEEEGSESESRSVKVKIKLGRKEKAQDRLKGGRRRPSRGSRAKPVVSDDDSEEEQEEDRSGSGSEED

Chain of BRM (P51531 whole entry): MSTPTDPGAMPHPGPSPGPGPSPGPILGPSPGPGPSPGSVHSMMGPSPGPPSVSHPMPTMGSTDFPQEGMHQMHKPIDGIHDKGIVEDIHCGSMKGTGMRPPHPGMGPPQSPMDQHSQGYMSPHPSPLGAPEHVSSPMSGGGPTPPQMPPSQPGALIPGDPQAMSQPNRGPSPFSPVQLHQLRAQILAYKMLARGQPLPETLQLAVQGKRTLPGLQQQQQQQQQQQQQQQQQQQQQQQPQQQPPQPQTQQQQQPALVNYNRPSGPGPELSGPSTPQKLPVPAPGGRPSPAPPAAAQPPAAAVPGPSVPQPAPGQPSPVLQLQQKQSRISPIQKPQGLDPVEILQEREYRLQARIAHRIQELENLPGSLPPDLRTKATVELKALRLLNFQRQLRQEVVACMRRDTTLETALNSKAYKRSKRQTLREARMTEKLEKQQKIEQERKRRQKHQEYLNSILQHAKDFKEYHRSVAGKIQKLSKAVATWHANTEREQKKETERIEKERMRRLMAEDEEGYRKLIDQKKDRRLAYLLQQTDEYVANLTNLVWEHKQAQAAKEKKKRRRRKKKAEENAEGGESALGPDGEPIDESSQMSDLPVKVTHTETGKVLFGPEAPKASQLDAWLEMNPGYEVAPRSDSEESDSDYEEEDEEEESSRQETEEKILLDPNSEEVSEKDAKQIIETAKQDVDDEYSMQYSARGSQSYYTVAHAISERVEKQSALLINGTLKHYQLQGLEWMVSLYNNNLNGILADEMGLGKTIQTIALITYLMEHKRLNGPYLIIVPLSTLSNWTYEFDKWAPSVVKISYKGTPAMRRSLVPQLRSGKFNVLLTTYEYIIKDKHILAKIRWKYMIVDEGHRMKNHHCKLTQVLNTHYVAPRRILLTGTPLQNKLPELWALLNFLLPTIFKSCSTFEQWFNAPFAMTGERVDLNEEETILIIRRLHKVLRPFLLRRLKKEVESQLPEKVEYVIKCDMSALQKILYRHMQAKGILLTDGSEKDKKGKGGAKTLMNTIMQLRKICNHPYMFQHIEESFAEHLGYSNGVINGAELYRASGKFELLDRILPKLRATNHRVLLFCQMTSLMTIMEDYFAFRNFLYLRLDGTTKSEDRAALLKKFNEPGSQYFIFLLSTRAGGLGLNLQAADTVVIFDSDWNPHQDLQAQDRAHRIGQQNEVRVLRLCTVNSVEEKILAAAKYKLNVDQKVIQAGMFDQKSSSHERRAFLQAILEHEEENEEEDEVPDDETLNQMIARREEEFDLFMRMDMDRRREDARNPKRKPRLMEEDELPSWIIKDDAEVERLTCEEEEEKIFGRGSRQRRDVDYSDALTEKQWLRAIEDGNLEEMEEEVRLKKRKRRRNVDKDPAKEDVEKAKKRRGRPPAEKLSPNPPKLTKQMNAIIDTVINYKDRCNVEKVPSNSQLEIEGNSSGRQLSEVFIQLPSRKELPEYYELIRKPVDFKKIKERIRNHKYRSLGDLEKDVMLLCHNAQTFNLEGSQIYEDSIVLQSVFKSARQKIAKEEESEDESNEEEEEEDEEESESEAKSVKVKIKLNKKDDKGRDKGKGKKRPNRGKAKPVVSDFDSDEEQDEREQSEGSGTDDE

Row | SMILES | BRM Max % Inhibition [1] [%] | IC50 [1] [µM] | IC50 [2] [nM] | Emax [2] [%]
1 | COc1cc(C(F)F)ccc1-c1ccc2cnc(CNC(=O)c3ccc4c(c3)[C@](C)(C#N)COC4)cc2n1 [Compound 157] | 99 | < 0.1 | 100 to 500 | 96
2 | C[C@@]1(C#N)COCc2ccc(C(=O)NCc3cc4nc(-c5ccnc(C6COC6)n5)ccc4cn3)cc21 [Compound 158] | 96 | 0.1 to 0.5 | 500 to 1000 | 75
3 | C[C@@]1(C#N)COCc2ccc(C(=O)NCc3cc4nc(-c5cccc6c5ccn6CCO)ccc4cn3)cc21 [Compound 159] | 99 | < 0.1 | 100 to 500 | 95
4 | C[C@@]1(F)COCc2ccc(C(=O)NCc3cc4nc(-c5cccc(C6(O)COC6)n5)ccc4cn3)cc21 [Compound 160] | 93 | 0.1 to 0.5 | 500 to 1000 | 62
5 | COc1nn(C)cc1-c1cnc2cnc(CNC(=O)c3ccc4c(c3)[C@](C)(F)COC4)cc2n1 [Compound 161] | 94 | 0.1 to 0.5 | 500 to 1000 | 53
6 | Cn1nc(-c2ccc3cnc(CNC(=O)c4ccc5c(c4)[C@](C)(C#N)COC5)cc3n2)cc1C(F)F [Compound 162] | 91 | 0.1 to 0.5 | 500 to 1000 | 59
7 | COC(C)(C)C#Cc1cccc(-c2ccc3cnc(CNC(=O)c4ccc5c(c4)[C@](C)(C#N)COC5)cc3n2)n1 [Compound 163] | 98 | < 0.1 | 100 to 500 | 87
8 | C[C@@]1(C#N)COCc2ccc(C(=O)NCc3cc4nc(-c5cc6ccccn6n5)ccc4cn3)cc21 [Compound 164] | 92 | 0.1 to 0.5 | 500 to 1000 | 68
9 | C[C@@]1(C#N)COCc2ccc(C(=O)NCc3cc4nc(-c5ccc6ccc(=O)n(C7CC7)c6n5)ccc4cn3)cc21 [Compound 165] | 97 | < 0.1 | 100 to 500 | 80
10 | C[C@@]1(C#N)COCc2ccc(C(=O)NCc3cc4nn(-c5cccc(N6CCC6)n5)cc4cn3)cc21 [Compound 166] | 91 | 0.1 to 0.5 | > 1000 | 40
11 | C[C@@]1(C#N)COCc2ccc(C(=O)NCc3ncc4ccc(-c5ccccc5)nc4c3F)cc21 [Compound 167] | 93 | 0.1 to 0.5 | 500 to 1000 | 69
12 | C[C@@]1(F)COCc2ccc(C(=O)NCc3cc4nc(-c5cccc(C6(CO)CC6)n5)ccc4cn3)cc21 [Compound 168] | 99 | < 0.1 | 100 to 500 | 93
13 | C[C@@]1(F)COCc2ccc(C(=O)NCc3cc4nc(-c5cccc(C6(O)CC(F)(F)C6)n5)ccc4cn3)cc21 [Compound 169] | 98 | < 0.1 | 100 to 500 | 91
14 | CC(C)(O)C#Cc1cccc(-c2ccc3cnc(CNC(=O)c4ccc5c(c4)[C@](C)(C#N)COC5)cc3n2)n1 [Compound 170] | 96 | 0.1 to 0.5 | 500 to 1000 | 80
15 | Cn1ccc2c(-c3ccc4cnc(CNC(=O)c5ccc6c(c5)[C@](C)(C#N)COC6)cc4n3)cc(F)cc21 [Compound 171] | 98 | < 0.1 | 100 to 500 | 92
16 | Cc1cc2c(-c3ccc4cnc(CNC(=O)c5ccc6c(c5)[C@](C)(C#N)COC6)cc4n3)cccc2n1C [Compound 172] | 99 | < 0.1 | < 100 | 97

Row | SMILES | BRM Max % Inhibition [1] [%] | IC50 [1] [µM] | IC50 [2] [nM] | Emax [2] [%]
17 | C[C@@]1(C#N)COCc2ccc(C(=O)NCc3cc4nc(-c5cccc6c5ccn6C5CC5)ccc4cn3)cc21 [Compound 173] | 98 | < 0.1 | 100 to 500 | 94
18 | CC(C)n1ccc2c(-c3ccc4cnc(CNC(=O)c5ccc6c(c5)[C@](C)(C#N)COC6)cc4n3)cccc21 [Compound 174] | 98 | < 0.1 | 100 to 500 | 95
19 | COc1cc(C2COC2)ccc1-c1ccc2cnc(CNC(=O)c3ccc4c(c3)[C@](C)(C#N)COC4)cc2n1 [Compound 175] | 97 | < 0.1 | 100 to 500 | 86
20 | [2H]C1([2H])OC([2H])([2H])[C@@](C)(F)c2cc(C(=O)NCc3cc4nc(-c5cncc(C6CC6)n5)ccc4cn3)cnc21 [Compound 176] | 98 | < 0.1 | 500 to 1000 | 83
21 | Cc1cn(C)c2cccc(-c3ccc4cnc(CNC(=O)c5ccc6c(c5)[C@](C)(C#N)COC6)cc4n3)c12 [Compound 177] | 94 | 0.1 to 0.5 | 500 to 1000 | 66
22 | CCn1ccc2c(-c3ccc4cnc(CNC(=O)c5ccc6c(c5)[C@](C)(C#N)COC6)cc4n3)cccc21 [Compound 178] | 99 | < 0.1 | 100 to 500 | 96
23 | Cn1ccc2c(-c3ccc4cnc(CNC(=O)c5ccc6c(c5)[C@](C)(C#N)COC6)cc4n3)cccc21 [Compound 179] | 99 | < 0.1 | 100 to 500 | 96
24 | Cn1c(=O)ccc2ccc(-c3ccc4cnc(CNC(=O)c5ccc6c(c5)[C@](C)(C#N)COC6)cc4n3)nc21 [Compound 180] | 100 | < 0.1 | 100 to 500 | 99
25 | C[C@@]1(C#N)COCc2ncc(C(=O)NCc3cc4cc(-c5cncc(C6CC6)n5)ccc4cn3)cc21 [Compound 181] | 100 | < 0.1 | 100 to 500 | 97
26 | Cn1ncc2c(-c3ccc4cnc(CNC(=O)c5ccc6c(c5)[C@](C)(C#N)COC6)cc4n3)cccc21 [Compound 182] | 99 | < 0.1 | 100 to 500 | 95
27 | C[C@@]1(F)COCc2ncc(C(=O)NCc3cc4nc(-c5ccnc(N6CCC6)n5)cnc4cn3)cc21 [Compound 183] | 98 | < 0.1 | 100 to 500 | 82
28 | COc1c(-c2ccc3cnc(CNC(=O)c4ccc5c(c4)[C@](C)(C#N)COC5)cc3n2)cnn1C(F)F [Compound 184] | 94 | 0.1 to 0.5 | 500 to 1000 | 67
29 | COc1nn([C@H]2C[C@H](F)C2)cc1-c1ccc2cnc(CNC(=O)c3ccc4c(c3)[C@](C)(C#N)COC4)cc2n1 [Compound 185] | 99 | < 0.1 | 100 to 500 | 87
30 | C[C@@]1(C#N)COCc2ccc(C(=O)NCc3cc4nc(-c5cn(C6COC6)nc5C5CC5)ccc4cn3)cc21 [Compound 186] | 97 | < 0.1 | 500 to 1000 | 66
31 | Cc1c(-c2ccc3cnc(CNC(=O)c4ccc5c(c4)[C@](C)(C#N)COC5)cc3n2)cnn1C1COC1 [Compound 187] | 88 | 0.1 to 0.5 | > 1000 | 42
